From ChEMBL document CHEMBL1933065, “Synthesis and antifungal evaluation of pyrido[1,2-a]indole-1,4-diones and benzo[f]pyrido[1,2-a]indole-6,11-diones” (2012)
≈ marks a conversion by molar mass, not a printed value.

Experiments:
Assay type in all cases: functional
[1] = system: Candida albicans; assay: Antifungal activity against Candida albicans Berkout KCCM 50235 after 1 day by standard two fold broth dilution method; conditions: Berkout KCCM 50235, 24 h
[2] = system: Candida tropicalis; assay: Antifungal activity against Candida tropicalis Berkout KCCM 50662 after 1 day by two fold broth dilution method; conditions: Berkout KCCM 50662, 24 h
[3] = system: Pichia kudriavzevii; assay: Antifungal activity against Candida krusei Berkout KCCM 11655 after 1 day by two fold broth dilution method; conditions: Berkout KCCM 11655, 24 h
[4] = system: Cryptococcus neoformans; assay: Antifungal activity against Cryptococcus neoformans Berkout KCCM 50564 after 1 day by two fold broth dilution method; conditions: Berkout KCCM 50564, 24 h
[5] = system: Aspergillus niger; assay: Antifungal activity against Aspergillus niger KCTC 1231 after 2 days by two fold broth dilution method; conditions: KCTC 1231, 48 h
[6] = system: Aspergillus flavus; assay: Antifungal activity against Aspergillus flavus KCCM 11899 after 2 days by two fold broth dilution method; conditions: KCCM 11899, 48 h

Row | SMILES | MIC [1] [µg/mL] | MIC [2] [µg/mL] | MIC [3] [µg/mL] | MIC [4] [µg/mL] | MIC [5] [µg/mL] | MIC [6] [µg/mL]
1 | COC(=O)c1c2c(n3ccc(OC)cc13)C(=O)c1ccccc1C2=O | 25 (≈ 74.6 µM) | 50 (≈ 149 µM) | 50 (≈ 149 µM) | 25 (≈ 74.6 µM) | 3.2 (≈ 9.54 µM) | 12.5 (≈ 37.3 µM)
2 | Nc1nc(=O)[nH]cc1F [FLUCYTOSINE] | 3.2 (≈ 24.8 µM) | 6.3 (≈ 48.8 µM) | 6.3 (≈ 48.8 µM) | 6.3 (≈ 48.8 µM) | 6.3 (≈ 48.8 µM) | 25 (≈ 194 µM)
3 | COc1ccn2c3c(c(C(C)=O)c2c1)C(=O)C(C)=C(C)C3=O | 25 (≈ 84.1 µM) | 25 (≈ 84.1 µM) | 3.2 (≈ 10.8 µM) | 6.3 (≈ 21.2 µM) | 3.2 (≈ 10.8 µM) | 25 (≈ 84.1 µM)
4 | CC1=C(C)C(=O)c2c(cc3cc(C)ccn23)C1=O | 12.5 (≈ 52.2 µM) | 6.3 (≈ 26.3 µM) | 12.5 (≈ 52.2 µM) | 6.3 (≈ 26.3 µM) | 12.5 (≈ 52.2 µM) | 1.6 (≈ 6.69 µM)
5 | CCOC(=O)c1c2c(n3ccc(CC)cc13)C(=O)c1ccccc1C2=O | 25 (≈ 72 µM) | 50 (≈ 144 µM) | > 100 | 25 (≈ 72 µM) | > 100 | 50 (≈ 144 µM)
6 | COC(=O)c1c2c(n3cc(C)ccc13)C(=O)c1ccccc1C2=O | 25 (≈ 78.3 µM) | > 100 | 50 (≈ 157 µM) | 25 (≈ 78.3 µM) | 25 (≈ 78.3 µM) | 50 (≈ 157 µM)
7 | COC(=O)c1c2c(n3ccc(C)cc13)C(=O)C(C)=C(C)C2=O | 6.3 (≈ 21.2 µM) | 6.3 (≈ 21.2 µM) | 6.3 (≈ 21.2 µM) | 25 (≈ 84.1 µM) | 6.3 (≈ 21.2 µM) | 3.2 (≈ 10.8 µM)
8 | CCc1ccn2c3c(c(C(C)=O)c2c1)C(=O)c1ccccc1C3=O | 50 (≈ 158 µM) | > 100 | 50 (≈ 158 µM) | 25 (≈ 78.8 µM) | 25 (≈ 78.8 µM) | 12.5 (≈ 39.4 µM)
9 | CCOC(=O)c1c2c(n3ccc(C#N)cc13)C(=O)C(C)=C(C)C2=O | 3.2 (≈ 9.93 µM) | 3.2 (≈ 9.93 µM) | 6.3 (≈ 19.5 µM) | 6.3 (≈ 19.5 µM) | 6.3 (≈ 19.5 µM) | 3.2 (≈ 9.93 µM)
10 | CCOC(=O)c1c2c(n3ccc(OC)cc13)C(=O)C(C)=C(C)C2=O | 12.5 (≈ 38.2 µM) | 6.3 (≈ 19.2 µM) | 6.3 (≈ 19.2 µM) | 50 (≈ 153 µM) | 3.2 (≈ 9.78 µM) | 3.2 (≈ 9.78 µM)
11 | CCOC(=O)c1c2c(n3cc(C)ccc13)C(=O)c1ccccc1C2=O | 12.5 (≈ 37.5 µM) | 6.3 (≈ 18.9 µM) | 25 (≈ 75 µM) | 12.5 (≈ 37.5 µM) | 3.2 (≈ 9.6 µM) | 25 (≈ 75 µM)
12 | COc1ccn2c3c(cc2c1)C(=O)C(C)=C(C)C3=O | 6.3 (≈ 24.7 µM) | 6.3 (≈ 24.7 µM) | 12.5 (≈ 49 µM) | 1.6 (≈ 6.27 µM) | 12.5 (≈ 49 µM) | 6.3 (≈ 24.7 µM)
13 | CCOC(=O)c1c2c(n3ccc(C)cc13)C(=O)c1ccccc1C2=O | 6.3 (≈ 18.9 µM) | 3.2 (≈ 9.6 µM) | 12.5 (≈ 37.5 µM) | 6.3 (≈ 18.9 µM) | 12.5 (≈ 37.5 µM) | 25 (≈ 75 µM)
14 | CCc1ccn2c3c(c(C(=O)OC)c2c1)C(=O)C(C)=C(C)C3=O | 3.2 (≈ 10.3 µM) | 12.5 (≈ 40.1 µM) | 25 (≈ 80.3 µM) | 0.8 (≈ 2.57 µM) | 1.6 (≈ 5.14 µM) | 6.3 (≈ 20.2 µM)
15 | COc1ccc2c(C(C)=O)c3c(n2c1)C(=O)c1ccccc1C3=O | 3.2 (≈ 10 µM) | 3.2 (≈ 10 µM) | 6.3 (≈ 19.7 µM) | 12.5 (≈ 39.1 µM) | 6.3 (≈ 19.7 µM) | 12.5 (≈ 39.1 µM)
16 | CCOC(=O)c1c2c(n3ccc(C)cc13)C(=O)C(C)=C(C)C2=O | 6.3 (≈ 20.2 µM) | 50 (≈ 161 µM) | 6.3 (≈ 20.2 µM) | 12.5 (≈ 40.1 µM) | 3.2 (≈ 10.3 µM) | 6.3 (≈ 20.2 µM)
17 | CCOC(=O)c1c2c(n3cc(C)ccc13)C(=O)C(C)=C(C)C2=O | 12.5 (≈ 40.1 µM) | 12.5 (≈ 40.1 µM) | 12.5 (≈ 40.1 µM) | 3.2 (≈ 10.3 µM) | 25 (≈ 80.3 µM) | 12.5 (≈ 40.1 µM)

Row | SMILES | MIC [1] [µg/mL] | MIC [2] [µg/mL] | MIC [3] [µg/mL] | MIC [4] [µg/mL] | MIC [5] [µg/mL] | MIC [6] [µg/mL]
18 | CCc1ccn2c3c(c(C(C)=O)c2c1)C(=O)C(C)=C(C)C3=O | 6.3 (≈ 21.3 µM) | 12.5 (≈ 42.3 µM) | 3.2 (≈ 10.8 µM) | 6.3 (≈ 21.3 µM) | 1.6 (≈ 5.42 µM) | 3.2 (≈ 10.8 µM)
19 | Cc1ccn2c3c(c(C)c2c1)C(=O)c1ccccc1C3=O | 6.3 (≈ 22.9 µM) | 12.5 (≈ 45.4 µM) | 50 (≈ 182 µM) | 12.5 (≈ 45.4 µM) | 3.2 (≈ 11.6 µM) | 25 (≈ 90.8 µM)
20 | OC(Cn1cncn1)(Cn1cncn1)c1ccc(F)cc1F [FLUCONAZOLE] | 50 (≈ 163 µM) | 3.2 (≈ 10.4 µM) | 25 (≈ 81.6 µM) | 6.3 (≈ 20.6 µM) | 6.3 (≈ 20.6 µM) | 25 (≈ 81.6 µM)
21 | Cc1ccn2c3c(cc2c1)C(=O)c1ccccc1C3=O | 12.5 (≈ 47.8 µM) | 12.5 (≈ 47.8 µM) | 6.3 (≈ 24.1 µM) | 6.3 (≈ 24.1 µM) | 50 (≈ 191 µM) | 3.2 (≈ 12.2 µM)
22 | COC(=O)c1c2c(n3ccc(OC)cc13)C(=O)C(C)=C(C)C2=O | 6.3 (≈ 20.1 µM) | 25 (≈ 79.8 µM) | 12.5 (≈ 39.9 µM) | 1.6 (≈ 5.11 µM) | 25 (≈ 79.8 µM) | 25 (≈ 79.8 µM)
23 | CCOC(=O)c1c2c(n3ccc(CC)cc13)C(=O)C(C)=C(C)C2=O | 6.3 (≈ 19.4 µM) | 12.5 (≈ 38.4 µM) | 6.3 (≈ 19.4 µM) | 6.3 (≈ 19.4 µM) | 12.5 (≈ 38.4 µM) | 6.3 (≈ 19.4 µM)
24 | CC(=O)c1c2c(n3cc(Cl)ccc13)C(=O)C(C)=C(C)C2=O | 6.3 (≈ 20.9 µM) | 12.5 (≈ 41.4 µM) | 3.2 (≈ 10.6 µM) | 6.3 (≈ 20.9 µM) | 1.6 (≈ 5.3 µM) | 3.2 (≈ 10.6 µM)
25 | CCc1ccn2c3c(c(C(=O)OC)c2c1)C(=O)c1ccccc1C3=O | 6.3 (≈ 18.9 µM) | 12.5 (≈ 37.5 µM) | 50 (≈ 150 µM) | 12.5 (≈ 37.5 µM) | 3.2 (≈ 9.6 µM) | 25 (≈ 75 µM)
26 | CCOC(=O)c1c2c(n3ccc(OC)cc13)C(=O)c1ccccc1C2=O | 12.5 (≈ 35.8 µM) | 25 (≈ 71.6 µM) | 25 (≈ 71.6 µM) | 3.2 (≈ 9.16 µM) | 6.3 (≈ 18 µM) | 12.5 (≈ 35.8 µM)
27 | CCOC(=O)c1c2c(n3ccccc13)C(=O)c1ccccc1C2=O | > 100 | 25 (≈ 78.3 µM) | 12.5 (≈ 39.1 µM) | 25 (≈ 78.3 µM) | 12.5 (≈ 39.1 µM) | 6.3 (≈ 19.7 µM)
28 | CC1=C(C)C(=O)C([n+]2ccc(C)cc2)=C(Cl)C1=O.[Cl-] | 12.5 | 6.3 | 6.3 | 3.2 | 25 | 6.3
29 | CC(=O)c1c2c(n3ccc(C)cc13)C(=O)C(C)=C(C)C2=O | 1.6 (≈ 5.69 µM) | 6.3 (≈ 22.4 µM) | 12.5 (≈ 44.4 µM) | 1.6 (≈ 5.69 µM) | 3.2 (≈ 11.4 µM) | 3.2 (≈ 11.4 µM)
30 | COc1cc[n+](C2=C(Cl)C(=O)C(C)=C(C)C2=O)cc1.[Cl-] | 25 | 100 | 12.5 | 6.3 | 25 | 25
31 | COc1ccn2c3c(cc2c1)C(=O)c1ccccc1C3=O | 50 (≈ 180 µM) | 25 (≈ 90.2 µM) | > 100 | > 100 | 25 (≈ 90.2 µM) | 6.3 (≈ 22.7 µM)
32 | Cc1cc[n+](C2=C(Cl)C(=O)c3ccccc3C2=O)cc1.[Cl-] | > 100 | > 100 | > 100 | > 100 | 50 | > 100
33 | COc1cc[n+](C2=C(Cl)C(=O)c3ccccc3C2=O)cc1.[Cl-] | > 100 | 50 | > 100 | 50 | > 100 | > 100
